# pIC50: −log10 of the molar value.
# Key:
# PRMT5 = target: T1, PRMT5 (Homo sapiens, UniProt O14744); test: PRMT5 Enzymatic Inhibition Assay (chemiluminescence immunoassay of histone H4 methylation); format: biochemical; conditions: 1 hour at room temperature; 10 μM to 1 nM
# T1 construct: purchased BPS Biosciences 52002L
# Description: A chemiluminescence immunoassay (CLIA) measuring the amount of PRMT5-mediated histone methylation was performed in a 96-well plate format according to the manufacturer's protocol (BPS Biosciences, Cat #52002L). A 96-well plate precoated with histone H4 peptide was rehydrated prior to use. A master mix containing PRMT5 substrate S-adenosylmethionine, reaction buffer, and purified PRMT5 enzyme was added to create reaction-competent wells. Wells lacking either S-adenosylmethionine substrate or PRMT5 enzyme were created as negative controls. 10 test concentrations, ranging from 100 μM to 10 nM, of the test compound were prepared using a 1:3 serial dilution in dH2O. 5 μL of each test concentration was added into a reaction-competent well. 5 μL of a 1% DMSO aqueous solution lacking inhibitor was added into negative control wells and into a reaction-competent well, creating a positive control well. The final reaction volume in each well was 50 μL, and the final concentration of the test compound in each well ranged from 10 μM to 1 nM. A known inhibitor of PRMT5, EPZ015666, was tested in parallel reaction wells as an assay validation control. The 96-well plate was incubated for 1 hour at room temperature.
# Upon completion of the incubation, the reaction supernatant in each well was discarded. Wells were washed with 1×TBST and incubated in blocking buffer for 1 hour. The wells were incubated with a primary antibody recognizing methylated Arg3 residues on Histone H4 for 1 hour. The wells were washed with 1×TBST again and subsequently incubated with an HRP-conjugated secondary antibody for 30 minutes. The wells were washed again with 1×TBST, and equal parts of the chemiluminescence reagents were added into each well. Quantification of luminescence was measured in a plate reader.
# Luminescence values were normalized against the positive and negative controls to convert the data into % PRMT5 activity. An inhibitor concentration-dependent curve was plotted against % PRMT5 activity and am IC50 value was determined for each compound.
# [1] = test system: drug-sensitive cell lines of Table 4; test: Cell Line Growth Retardation Assay, average maximum effect in sensitive cohort; format: cell-based, Human; conditions: average maximum growth inhibition over sensitive cohort of Table 4; 6 days; up to 1 μM
# Description: (§1) Cells were seeded at densities of 1,000-5,000 cells per well in 48-well tissue culture plates. After a 24 h rest period, cells were treated with compound at 1 μM, 0.2 μM, 0.04 μM, 0.008 μM, 0.0016 μM, and 0.00032 μM. A group of cells were treated with the vehicle in which the compound was prepared and served as a control. Prior to treatment, cells were counted and this count was used as a baseline for the calculation of growth inhibition. The cells were grown in the presence of compounds for 6 days and were counted on day 6. All cell counting was performed using a Synentec Cellavista plate imager. Growth inhibition was calculated as a ratio of cell population doublings in the presence of compound versus the absence of compound and expressed as the maximum percentage growth inhibition achieved across the range of tested concentrations of the compound (“maximum effect” or “ME”) calculated by fitting curves to data points from each dose-response assay using the Proc NLIN function in SAS for Windows version 9.2 (SAS Institute, Inc.).
# (§2) Human cancer cell lines were grouped as “sensitive” or “resistant” to PRMT5 inhibition based on whether their growth was retarded by JNJ-64619178 (i.e., (1S,2R,3R,5R)-3-(2-(2-amino-3-bromoquinolin-7-yl)ethyl)-5-(4-amino-7H-pyrrolo[2,3-d]pyrimidin-7-yl)cyclopentane-1,2-diol) (data not shown; see Table 4). These sensitive and resistant cohorts were interrogated for response to each compound, and ME was calculated for each cell line using the same technique described above. Average MEs for the sensitive and resistant cohorts were calculated as arithmetic means of the group. “A” represents a percent of maximum effect of 60% or greater, “B” represents a percent of maximum effect of 30% to 59%, and “C” represents a percent of maximum effect of 29% or lower.
# [2] = test system: drug-resistant cell lines of Table 4; test: Cell Line Growth Retardation Assay, average maximum effect in resistant cohort; format: cell-based, Human; conditions: average maximum growth inhibition over resistant cohort of Table 4; 6 days; up to 1 μM
# Description: as §1, §2
# [3] = Measurement of Compound Metabolic Stability in hepatocytes; format: in vitro ADME; conditions: mouse hepatocytes; for hepatocyte CLint at 1 μM: read-out: CLint (μL/min/10^6)
# Description: The metabolic stability of compounds was determined in hepatocytes from human, mice and rats. Compounds were diluted to 5 μM in Williams' Medium E from 10 mM stock solutions. 10 μL of each compound was aliquoted into a well of a 96-well plate and reactions were started by aliquoting 40 μL of a 625,000 cells/mL suspension into each well. The plate was incubated at 37° C. with 5% CO2. At each corresponding time point, the reaction was stopped by quenching with ACN containing internal standards (IS) at a 1:3. Plates were shaken at 500 rpm for 10 min, and then centrifuged at 3,220×g for 20 minutes. Supernatants were transferred to another 96-well plate containing a dilution solution. Supernatants were analyzed by LC/MS/MS. The Half-lives (in minutes) and CLint values (in μL/min/10^6 cells) of example compounds, as measured in mouse hepatocytes, are presented in Table 3. […] For CLint, “A” represents greater than 100 μL/min/10^6 cells, “B” represents 50 to 100 μL/min/10^6 cells, and “C” represents less than 50 μL/min/10^6 cells.
# The remaining percent of compound after incubation was calculated using the following equation: % Remaining Compound=Peak Area Ratios of Tested Compound vs. Internal Standard at End Point • Peak Area Ratios of Tested Compound vs. Internal Standard at Start Point Compound half-life and CLint were calculated using the following equations: Ct=C0*e^−k*t(first order kinetics); when […], t1/2=ln 2/k=0.693/k; and CLint=k/(1,000,000 cells/mL) Activity-Guided Selection of Inhibitors
# T1 sequence (O14744 2-637 limits assumed): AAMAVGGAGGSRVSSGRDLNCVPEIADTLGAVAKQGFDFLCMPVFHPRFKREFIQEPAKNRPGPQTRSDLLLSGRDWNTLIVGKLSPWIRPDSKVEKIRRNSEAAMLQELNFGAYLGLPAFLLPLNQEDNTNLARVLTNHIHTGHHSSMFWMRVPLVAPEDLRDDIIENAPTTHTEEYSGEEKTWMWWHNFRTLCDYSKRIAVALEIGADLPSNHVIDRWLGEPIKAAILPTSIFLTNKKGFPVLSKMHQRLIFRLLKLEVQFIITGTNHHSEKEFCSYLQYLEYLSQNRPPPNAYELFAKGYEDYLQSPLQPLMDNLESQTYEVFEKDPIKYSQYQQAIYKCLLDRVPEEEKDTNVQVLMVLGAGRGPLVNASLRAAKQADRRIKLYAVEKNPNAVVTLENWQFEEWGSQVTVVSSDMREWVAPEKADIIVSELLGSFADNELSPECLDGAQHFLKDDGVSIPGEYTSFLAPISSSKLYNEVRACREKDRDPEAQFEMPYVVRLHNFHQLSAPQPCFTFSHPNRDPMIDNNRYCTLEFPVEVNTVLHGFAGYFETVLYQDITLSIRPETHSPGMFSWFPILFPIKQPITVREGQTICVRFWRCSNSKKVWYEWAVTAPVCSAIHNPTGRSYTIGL
# T1 sequence (Q9BQA1 2-342 partner limits assumed): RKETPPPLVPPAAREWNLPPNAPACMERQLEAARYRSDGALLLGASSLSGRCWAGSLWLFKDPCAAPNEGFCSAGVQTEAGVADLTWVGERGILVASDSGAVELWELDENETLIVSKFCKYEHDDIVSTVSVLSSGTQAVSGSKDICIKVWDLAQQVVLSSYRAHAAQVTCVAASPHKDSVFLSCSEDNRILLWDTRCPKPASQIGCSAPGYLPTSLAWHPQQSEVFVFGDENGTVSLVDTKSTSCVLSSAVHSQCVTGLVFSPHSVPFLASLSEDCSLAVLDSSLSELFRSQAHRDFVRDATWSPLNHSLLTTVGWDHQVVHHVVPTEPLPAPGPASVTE
Compound,pIC50 (PRMT5),AvgSens ME (%) [1],AvgRes ME (%) [2],half-life at 1 μM [3] [min],hepatocyte CLint at 1 μM [3] [µL/min/1e6 cells]
Nc1ccc2ccc([C@H]3C[C@@]4(CO3)C[C@@H](n3ccc5c(Cl)ncnc53)[C@H](O)[C@@H]4O)cc2n1 [Compound 20],≥ 7.00,A (a percent of maximum effect of 60% or greater),B (a percent of maximum effect of 30% to 59%),< 15,> 100
"Nc1nc2cc(C3C[C@@]4(CN3)C[C@@H](n3ccc5c(Cl)ncnc53)[C@H](O)[C@@H]4O)ccc2cc1Br (single isomer, unassigned) [Compound 10]",6.30 to 7.00,C (a percent of maximum effect of 29% or lower),C (a percent of maximum effect of 29% or lower),,
"Nc1nc2cc(C3C[C@@]4(CO3)C[C@@H](n3ccc5c(N)ncnc53)[C@H](O)[C@@H]4O)ccc2cc1Br (single isomer, unassigned) [Compound 16]",≥ 7.00,A (a percent of maximum effect of 60% or greater),B (a percent of maximum effect of 30% to 59%),,
CC(C)Nc1ncnc2c1ccn2[C@@H]1C[C@@]2(CO[C@@H](c3ccc4cc(Br)c(N)nc4c3)C2)[C@@H](O)[C@H]1O [Compound 25],≥ 7.00,B (a percent of maximum effect of 30% to 59%),C (a percent of maximum effect of 29% or lower),,
Nc1nc2cc(C3C[C@@]4(CO3)C[C@@H](n3ccc5c(Cl)ncnc53)[C@H](O)[C@@H]4O)ccc2cc1Br (stereo partly shown) [Compound 18],≥ 7.00,C (a percent of maximum effect of 29% or lower),C (a percent of maximum effect of 29% or lower),,
"CN1C[C@]2(CC1c1ccc3cc(Br)c(N)nc3c1)C[C@@H](n1ccc3c(N)ncnc31)[C@H](O)[C@@H]2O (single isomer, unassigned) [Compound 6]",< 6.30,C (a percent of maximum effect of 29% or lower),C (a percent of maximum effect of 29% or lower),,
"Nc1ncnc2c1ccn2[C@@H]1C[C@@]2(CNC(c3ccc4cc(Br)c(Cl)nc4c3)C2)[C@@H](O)[C@H]1O (single isomer, unassigned) [Compound 4]",6.30 to 7.00,C (a percent of maximum effect of 29% or lower),C (a percent of maximum effect of 29% or lower),,
Nc1ccc2ccc([C@H]3C[C@@]4(CO3)C[C@@H](n3ccc5cncnc53)[C@H](O)[C@@H]4O)cc2n1 [Compound 21],≥ 7.00,A (a percent of maximum effect of 60% or greater),B (a percent of maximum effect of 30% to 59%),< 15,> 100
"CN1C[C@]2(CC1c1ccc3cc(Br)c(N)nc3c1)C[C@@H](n1ccc3c(N)ncnc31)[C@H](O)[C@@H]2O (single isomer, unassigned) [Compound 5]",6.30 to 7.00,C (a percent of maximum effect of 29% or lower),C (a percent of maximum effect of 29% or lower),,
"O[C@H]1[C@H](n2ccc3c(Cl)ncnc32)C[C@@]2(CNC(c3ccc4cc(Br)c(Cl)nc4c3)C2)[C@H]1O (single isomer, unassigned) [Compound 2]",< 6.30,C (a percent of maximum effect of 29% or lower),C (a percent of maximum effect of 29% or lower),,
"Nc1nc2cc(C3C[C@@]4(CN3)C[C@@H](n3ccc5c(N)ncnc53)[C@H](O)[C@@H]4O)ccc2cc1Br (single isomer, unassigned) [Compound 7]",≥ 7.00,A (a percent of maximum effect of 60% or greater),B (a percent of maximum effect of 30% to 59%),,
"Nc1ncnc2c1ccn2[C@@H]1C[C@@]2(CNC(c3ccc4cc(Br)c(Cl)nc4c3)C2)[C@@H](O)[C@H]1O (single isomer, unassigned) [Compound 3]",< 6.30,C (a percent of maximum effect of 29% or lower),C (a percent of maximum effect of 29% or lower),,
CCCNc1ncnc2c1ccn2[C@@H]1C[C@@]2(CO[C@@H](c3ccc4cc(Br)c(N)nc4c3)C2)[C@@H](O)[C@H]1O [Compound 26],≥ 7.00,B (a percent of maximum effect of 30% to 59%),B (a percent of maximum effect of 30% to 59%),,
"O[C@H]1[C@H](n2ccc3c(Cl)ncnc32)C[C@@]2(CNC(c3ccc4cc(Br)c(Cl)nc4c3)C2)[C@H]1O (single isomer, unassigned) [Compound 1]",< 6.30,C (a percent of maximum effect of 29% or lower),C (a percent of maximum effect of 29% or lower),,

# From patent US12583859B2, “PRMT5 inhibitors and uses thereof” (California Institute of Technology, priority 2019, dated 2026)
